Patent US5430023A, “Tripeptide antithrombotic agents” (Eli Lilly and Company, priority 1993, dated 1995)
Square brackets hold non-standard residues; d marks the D form. Peptide text beside a SMILES is read from it. * marks the point of attachment. dNMePhg = CN[C@@H](C(=O)O)c1ccccc1; dHpg = N[C@@H](C(=O)O)c1ccc(O)cc1; dChg = N[C@@H](C(=O)O)C1CCCCC1; dPhg = N[C@@H](C(=O)O)c1ccccc1; Boc = CC(C)(C)OC(=O)*

How the values were obtained:
[1] = molecular target: T1, bovine thrombin (Bos taurus, UniProt P00735); experiment: Inhibition of thrombin amidase activity (chromogenic substrate), bovine thrombin; format: biochemical; details: apparent equilibrium constant inhibitor-thrombin, mean over a range of concentrations
T1 construct: 25 μl of bovine thrombin solution (0.21 mg/ml of thrombostat powder); purchased thrombostat powder
Description: The data in the table were obtained in an assay in which thrombin hydrolyzes the chromogenic substrate, N-benzoyl-D-phenylalanyl-L-valyl-L-arginyl-p-nitroanilide.
The assay was carried out in 50 μl buffer (0.03M Tris, 0.15M NaCl, pH 7.4) with 25 μl of bovine thrombin solution (0.21 mg/ml of thrombostat powder in 0.06M Tris, 0.3M NaCl, pH 7.4) and 150 μl of an aqueous solution of the chromogenic substrate at a concentration of 0.25 mg/ml. Solutions of test compound (25 μl) at various concentrations were added. […] Standard curves were constructed by plotting free thrombin concentration against hydrolysis rate. […] The amount of free inhibitor in each assay was calculated by subtracting the number of moles of bound thrombin from the number of moles of added inhibitor (test compound).
Kass was calculated for a range of concentrations of compounds and the mean value is reported in units of liter per mole.

[2] = test system: plasma coagulation (thromboplastin); experiment: Plasma coagulation assay: prothrombin time; format: biochemical
Description: The numerical values in the table are the concentrations of the test compounds (ng/ml) required to prolong coagulation by 2-fold in the three tests. The thrombin time evaluation was carried out in plasma and separately determined in a buffer system at pH 7.5.
(§1) The data presented in Table 2 were obtained using a CoaScreener instrument from Tecan, Inc. in the assay protocols listed below.
50 μl thromboplastin (Dade)

[3] = test system: plasma coagulation (Actin, CaCl2); experiment: Plasma coagulation assay: APTT (activated partial thromboplastin time); format: biochemical
Description: (§2) The anticoagulant activity of the compounds of the invention has been determined in standard tests. The following Table 2 presents the data obtained with representative compounds of the invention in tests used to determine prothrombin time, thrombin time and activated partial thromboplastin time (APTT). The numerical values in the table are the concentrations of the test compounds (ng/ml) required to prolong coagulation by 2-fold in the three tests. The thrombin time evaluation was carried out in plasma and separately determined in a buffer system at pH 7.5.
as §1

[4] = molecular target: T1, bovine thrombin; experiment: Plasma coagulation assay: thrombin time; format: biochemical
Description: as §2, §1
50 μl bovine thrombin (2 NIH

[5] = molecular target: T1, bovine thrombin; experiment: Thrombin time in buffer (fibrinogen instead of plasma); format: biochemical; details: Buffer (pH 7.5)
Description: as §2, §1
In the Thrombin Time determined in pH 7.4 buffer fibrinogen was used instead of plasma.

[6] = test system: arterial thrombosis in the carotid artery; experiment: Ferric chloride induced arterial thrombosis in the carotid artery of the rat; format: in vivo; details: infusion from 15 min before to 60 min after FeCl3, NA = Not active at 4 mg/kg/h or at 7 mg/kg/h, the highest doses tested
Description: The antithrombotic activity of representative compounds of the invention was determined in in vivo tests carried out in the rat. The test employed induced arterial thrombosis in the carotid artery of the rat and measured the infusion dose of test compound required to maintain blood flow for fifty minutes past the time of occlusion. The test was performed as follows.
Arterial thrombosis was induced in the rat by injury of the carotid artery. Topical application of a ferric chloride solution was used to injure the vessel. Male Sprague-Dawley rats (375-450 g) were anesthetized with xylazine (20 mg/kg, s.c.) followed by ketamine HCl (100 mg/kg, s.c.). Animals were laid on a water blanket in which the circulated water was maintained at 37° C. The carotid artery was approached through a midline cervical incision. Careful blunt dissection was used to expose and isolate the vessel from the carotid sheath. A silk suture was pulled underneath the artery to lift the vessel to provide clearance to insert a thermocouple underneath it. […] Small forceps were used to dip discs (3 mm dia) of Whatman No. 1 filter paper into a FeCl3 solution (35%). The discs were cut to equal size using sharpened stainless steel tubing (3 mm i.d.) chucked in a drill press. A saturated disc was placed on each carotid artery above the thermocouple. The time between FeCl3 application and the time at which temperature decreased abruptly was recorded as time to occlusion (TTO) of the vessel. The average time required for both vessels to occlude was used to represent TTO for each animal.
Test compounds were dissolved in isotonic saline. […]
The association between vessel occlusion and the abrupt temperature decrease was established by simultaneously recording the temperature and blood flow on the same recorder. […] Baseline temperature and flow velocity (determined with a Directional Pulsed Doppler Flowmeter, Model 545-C, University of Iowa Bioengineering) were recorded before application of 35% ferric chloride. […]

Row | Compound | Thrombin Amidase Kass × 10^6 [1] | Prothrombin Time: concentration required to prolong coagulation by 2fold [2] [ng/mL] | APTT: concentration required to prolong coagulation by 2fold [3] [ng/mL] | Thrombin Time: concentration required to prolong coagulation by 2fold [4] [ng/mL] | Thrombin Time: concentration required to prolong coagulation by 2fold [5] [ng/mL] | ED50: infusion dose required to maintain blood flow for 50 min [6] [mg/kg/h]
1 | CC(C)(C)OC(=O)NC(C(=O)N1CCC[C@H]1C(=O)N[C@H](C=O)CCCNC(=N)N)c1cccc2ccccc12 (mixture of isomers) [Boc-DL-1-naphthylglycyl] | 18 × 10^6 1/mole | 1136 | 2272 | 320 | 112 | 5.5
2 | CC[C@@H](C(=O)N1CCC[C@H]1C(=O)N[C@H](C=O)CCCNC(=N)N)c1ccccc1 [(R)-α-Ethylphenylacetyl] | 7 × 10^6 1/mole | – | – | 115 | – | –
3 | CO[C@@H](C(=O)N1CCC[C@H]1C(=O)N[C@H](C=O)CCCNC(=N)N)c1ccccc1 [(R)-α-Methoxyphenylacetyl] | 4 × 10^6 1/mole | – | > 909 | 139 | 173 | –
4 | COc1ccc([C@@H](NC(C)=O)C(=O)N2CCC[C@H]2C(=O)N[C@H](C=O)CCCNC(=N)N)cc1 [Acetyl-D-(4-methoxy)phenylglycyl] | 15 × 10^6 1/mole | 900 | 2600 | 460 | – | –
5 | CC(=O)O.CC(=O)O.CC(C)(C)OC(=O)N[C@@H](C(=O)N1CCC[C@H]1C(=O)N[C@H](C=O)CCCNC(=N)N)c1ccc2ccccc2c1 [Boc-D-2-naphthylglycyl, N-Boc-D-2-naphthylglycyl-Pro-Arg-H diacetate] | 22 × 10^6 1/mole | 1200 | 1200 | 230 | 142 | –
6 | CC(C)(C)OC(=O)NC(C(=O)N1CCCC1C(=O)NC(C=O)CCCN=C(N)N)c1cccs1 [Boc-D-2-thienylglycyl] | 14 × 10^6 1/mole | – | – | – | – | –
7 | CC(=O)O.CC(=O)O.CC(C)(C)OC(=O)N[C@@H](C(=O)N1CCC[C@H]1C(=O)N[C@H](C=O)CCCNC(=N)N)c1ccc(O)cc1 [Boc-D-(4-hydroxy)phenylglycyl, N-Boc-D-(4-hydroxyphenylglycyl)-Pro-Arg-H diacetate] (Boc-[dHpg]-Pro-Arg-aldehyde) | 115 × 10^6 1/mole | 1636 | 1091 | 182 | – | –
8 | COc1ccc([C@@H](NC(=O)OC(C)(C)C)C(=O)N2CCC[C@H]2C(=O)N[C@H](C=O)CCCNC(=N)N)cc1 [Boc-D-(4-methoxy)phenylglycyl] | 75 × 10^6 1/mole | – | 640 | 80 | – | –
9 | COc1ccc2cc([C@@H](NC(=O)OC(C)(C)C)C(=O)N3CCC[C@H]3C(=O)N[C@H](C=O)CCCNC(=N)N)ccc2c1 [Boc-D-(6-methoxy)-2-naphthylglycyl] | 6 × 10^6 1/mole | 35489 | 2239 | 460 | 466 | –
10 | CC(C)(C)OC(=O)NC(C(=O)N1CCCC1C(=O)NC(C=O)CCCN=C(N)N)c1ccc(F)cc1 [Boc-D-Phg(4-Fluoro)] | 44 × 10^6 1/mole | – | – | – | – | –
11 | CC(C)(C)OC(=O)N[C@@H](C(=O)N1CCC[C@H]1C(=O)N[C@H](C=O)CCCNC(=N)N)C1CCCCC1 [Boc-D-cyclohexylglycyl] (Boc-[dChg]-Pro-Arg-aldehyde) | 120 × 10^6 1/mole | 522 | 748 | 79 | 60 | –
12 | CC(C)(C)OC(=O)NC(Cc1ccccc1)C(=O)N1CCCC1C(=O)NC(C=O)CCCN=C(N)N [Boc-D-phenylalanyl, reference compound] | 21 × 10^6 1/mole | – | – | – | – | –
13 | CC(C)(C)OC(=O)N[C@@H](C(=O)N1CCC[C@H]1C(=O)N[C@H](C=O)CCCNC(=N)N)c1ccccc1.CC(C)(C)OC(=O)N[C@@H](C(=O)N1CCC[C@H]1C(=O)N[C@H](C=O)CCCNC(=N)N)c1ccccc1.O=S(=O)(O)O [Boc-D-phenylglycyl (sulfate salt), N-Boc-D-Phenylglycyl-L-Prolyl-L-Arginine aldehyde (Boc-D-Phg-Pro-Arg-H) hemisulfate] (Boc-[dPhg]-Pro-Arg-aldehyde) | 107 × 10^6 1/mole | – | – | – | – | –
14 | N=C(N)NCCC[C@@H](C=O)NC(=O)[C@@H]1CCCN1C(=O)[C@H]1CC2CCCCC2CN1.O=S(=O)(O)O (stereo partly drawn) [D-1,2,3,4,6,7,8-Perhydroisoquinolin-3-carbonyl-L-prolyl-L-arginal (sulfate)] | 25 × 10^6 1/mole | – | – | – | – | –
15 | N=C(N)NCCC[C@@H](C=O)NC(=O)[C@@H]1CCCN1C(=O)[C@@H]1NCCc2ccccc21.O=S(=O)(O)O [D-1,2,3,4-Tetrahydroisoquinolin-1-carbonyl-L-Prolyl-L-Arginine Aldehyde Sulfate] | 113 × 10^6 1/mole | – | – | – | – | –
16 | Cl.N=C(N)NCCC[C@@H](C=O)NC(=O)[C@@H]1CCCN1C(=O)[C@H]1Cc2ccccc2C(=O)N1 [D-1,2,3,4-tetrahydroisoquinolin-1-keto-3-carbonyl-L-prolyl-L-arginine aldehyde (hydrochloride)] | 6 × 10^6 1/mole | – | – | – | – | –
17 | N=C(N)NCCC[C@@H](C=O)NC(=O)[C@@H]1CCCN1C(=O)[C@H](N)c1ccccc1 [D-Phenylglycyl] (H-[dPhg]-Pro-Arg-aldehyde) | 75 × 10^6 1/mole | – | – | 91 | – | –
18 | CN[C@@H](C(=O)N1CCC[C@H]1C(=O)N[C@H](C=O)CCCNC(=N)N)c1ccccc1 [N^α -Methyl-D-phenylglycyl (sulfate), N-methyl-D-phenylglycyl-L-prolyl-L-arginine aldehyde] (H-[dNMePhg]-Pro-Arg-aldehyde) | 80 × 10^6 1/mole | 899 | > 909 | 92 | 67 | –
19 | N^α -acetyl-1-aminocyclohexane-1-carbonyl-L-prolyl-L-arginine Aldehyde (Hydrochloride) | 0.2 × 10^6 1/mole | – | – | – | – | –
20 | N^α -ethylcarbamate-1-amino-1-cyclohexane-carbonyl-L-prolyl-L-arginine Aldehyde (Hydrochloride) | 1.5 × 10^6 1/mole | – | – | – | – | –
